Literature values as cited in article PMC7575488, “Phase 1 dose-escalation study of a novel oral PI3K/mTOR dual inhibitor, LY3023414, in patients with cancer” (Investigational New Drugs, 2020).

Conditions: cited from earlier work; for Stomatitis, mucositis, and mouth sores: clinical studies with mTOR inhibitors

## CO[C@H]1C[C@@H]2CC[C@@H](C)[C@@](O)(O2)C(=O)C(=O)N2CCCC[C@H]2C(=O)O[C@H]([C@H](C)C[C@@H]2CC[C@@H](OCCO)[C@H](OC)C2)CC(=O)[C@H](C)/C=C(\C)[C@@H](O)[C@@H](OC)C(=O)[C@H](C)C[C@H](C)/C=C/C=C/C=C/1C [everolimus]
Japan, ref interim report on surveillance of everolimus-induced ILD in Japan
  Incidence of ILD: 17.4%
  Stomatitis, mucositis, and mouth sores: 41%

## CO[C@H]1C[C@@H]2CC[C@@H](C)[C@@](O)(O2)C(=O)C(=O)N2CCCC[C@H]2C(=O)O[C@H]([C@H](C)C[C@@H]2CC[C@@H](OP(C)(C)=O)[C@H](OC)C2)CC(=O)[C@H](C)/C=C(\C)[C@@H](O)[C@@H](OC)C(=O)[C@H](C)C[C@H](C)/C=C/C=C/C=C/1C [deforolimus]
  Stomatitis, mucositis, and mouth sores: 78%
